Measurements as given in patent US6689381B2, “Liposomal benzoquinazoline thymidylate synthase inhibitor formulations” (OSI Pharmaceuticals, Inc., priority 2000, dated 2004).

Tests used:
[1] = test system: human colon tumor xenograft model (HCT-8, thymidine kinase (TK)-/-); experiment: HCT-8 xenograft, second study: liposomal GW1843U89 versus free drug (Table 26); format: in vivo, Female Nu/Nu mice
Excerpt: Female Nu/Nu mice (18-24 g, 10-14 weeks old) were obtained from Harlan Sprague Dawley, and housed in microisolator filtration racks and maintained with filtered acidified water and sterile lab chow ad libitum. The human colon tumor xenograft model (HCT-8, thymidine kinase (TK)−/−) was obtained from Dr. Youcef M. Rustum (Roswell Park, Buffalo, N.Y.), and established in-house as a useful model for evaluation of thymidylate synthase inhibitors. Animals were allowed to acclimate to their new environment for 1 week prior to tumor cell implantation. Tumors were established by injecting harvested tumor cells in a single subcutaneous site on the flank of the mice in the axillary region. The tumors were grown until approximately 200+/−50 mm^3 in size. The animals were then sorted according to body weight, grouped four animals/cage, and tattooed on the tail for permanent identification. […] Tumor volumes were determined with vernier caliper measurements taken at right angles using the formula, (L×W^2/2) and body weights, were collected twice weekly. Data was plotted as % change in body weight vs. time in days, and % tumor volume increase vs. days.
T=(mean) time in days for treated group to reach cutoff size (2 grams)
C=(mean) time in days for control group to reach cutoff size (2 grams)
WC is the mean tumor weight of control group at time x
Wt is mean tumor weight of treated group at time x
% Regression=100 (Wo−Wi)/Wo; where Wo is the mean tumor weight for treated group at the initiation of treatment and Wi=the mean tumor weight for that group at time some time x after treatment. Many times the time x=24-48 hr after the final dose of therapy.
The log10 cell kill (gross)=[T−C value in days/(3.32)(Td)
Where T−C=time difference in days between Treated and Control tumors to reach a defined end point; and Td is the Tumor Volume Doubling time in days from the best-fit straight line from a log-linear growth plot of the control tumors exponential growth (100-800 mg range). […]

in vivo = experiment: in vivo; set-up: species or system Male Sprague-Dawley rats; details: male, Sprague-Dawley, rat, iv, 1 mg/kg
Procedure: GW1843 (M.W. 500.51 g/mol) was obtained from Glaxo Wellcome, Inc. and suspended as an aqueous. Briefly, 616.74 milligrams of GW1843 was suspended in 1.4 mL 2 N NaOH. The solution was mixed until dissolved. To the dissolved solution 30 mL saline was added. The pH was adjusted to 7.15 with 2 N HCl. Finally, the solution was brought to 46.545 mL with saline. The nominal concentration was 13.25 mg/mL. UV absorption in 0.1 N sodium hydroxide at 266 nm, based on an extinction coefficient of 4.34×104 cm^−1 M^−1, determined the concentration. The concentration by UV spectroscopy was 13.97 mg/mL (5.4% difference from expected). The value determined by spectroscopy was utilized for standards in the HPLC assay. NX1843 lot SMC-991-96 (see Table 1A) was used for making quality control solutions.
Male Sprague-Dawley rats weighing 343.91 to 420.19 grams were used for the study. The in-life phase of the study was conducted in Boulder Colo. in accordance with the guidelines for animal welfare and care (NRC Publication Guide for the Care and Use of Laboratory Animals, 1996). IACUC protocol number N98010. Animals were allowed free access to food and water before and during treatment.
Individual animals treated with NX1843 were weighed and dosed at 1 mg/kg body weight by intravenous bolus administration into the tail vein while under isoflurane anesthesia.
Serial EDTA-blood samples (0.5 mL) were obtained at 5, 15, 30 and 45 minutes, and 1, 1.5 and 2 hr post-dosing for the GW1843 group while animals were under isoflurane anesthesia. For the NX1843 group, serial EDTA-blood samples (0.5 mL) were obtained at 10, 30 and 90 minutes and 4, 8, 24, 32, 48, 72 and 96 hours post-dosing. The EDTA-blood samples were immediately processed for plasma and plasma samples were stored at −20° C. until analysis.
An isocratic reverse phase high performance liquid chromatographic (HPLC) procedure was used for rapid determination of the total GW1843 concentration in rat EDTA-plasma. Following methanol precipitation of plasma protein (2 parts methanol to 1 part plasma), the protein was removed by centrifugation at 14,000×g for 10 minutes. A ZORBAX Eclipse™ XBD-C18 column (3 mm×15 cm) configured with a guard column was used to separate the soluble GW1843 (injection volume 20 μL). The HPLC buffer consisted of 80% 100-mM ammonium acetate pH 5.3, and 20% acetonitrile and the flow rate was 0.4 mL/min. The total run time was seven minutes and GW1843 was detected and quantified by ultraviolet absorbance at 264 nm. The standard curve consisted of free GW1843 spiked rat EDTA-plasma while the quality control samples consisted of NX1843 spiked rat EDTA-plasma. The range of the standard curve was 0.1 to 30.0 μg/mL.
The pharmacokinetic parameters for total GW1843 after i.v administration of GW1843 or liposome encapsulated GW1843 were assessed by a non-compartmental method using WinNonlin (version 1.5). The log/linear trapazoidal rule was used. For non-compartmental analysis, all three time points were utilized for the estimation the elimination phase for free GW1843 while the last 5 time points were utilized to estimate the elimination half-life of NX1843. Cmax values were estimated by extrapolation to zero time. Pharmacokinetic parameters were determined for each animal in the study. From values obtained in each group the mean and SD of each parameter was determined. The parameters estimated included:
The observed clearance (CL) of GW1843 following administration was calculated as: […]
Comparison of treatment groups was performed by unpaired t-tests of data obtained in the same experiment. A p-value of <0.05 was considered significant. Tests were performed using GraphPad Instat version 1.0 (GraphPad Software).

[2] = Concentration of GW1843 in Plasma

## Cc1nc2ccc3ccc(CNc4ccc5c(c4)CN(C(CCC(=O)O)C(=O)O)C5=O)cc3c2c(=O)[nH]1 (stereo not drawn) [GW1843]
[1]; 25 mg/kg every day (total 350 mg/kg)
  log cell kill: 1.5
[1]; 50 mg/kg every day (total 700 mg/kg)
  log cell kill: 3.5
[1]; 25 and 50 mg/kg every day
  tumor regression: no tumor regression occurred
In vivo
  volume of distribution of free drug relative to the liposome formulation: ~14.6 fold
In vivo; AUC(0-inf)
  AUC(0-inf): 270 ± 28 ng·h/mL
In vivo; AUC(0-last)
  AUC(0-t): 250 ng·h/mL
In vivo; CL
  clearance: 61 mL/min/kg
In vivo; Cmax
  Cmax: 1620 to 1990 ng/mL
In vivo; [2]
  concentration at 0.083 hr: 991 ng/mL
  concentration at 0.25 hr: 214 ng/mL
  concentration at 0.5 hr: 117 ng/mL
In vivo; MRT(0-inf)
  MRT inf: 10.8 min
In vivo; T½ (terminal half-life)
  half-life: 8.52 ± 0.42 min
In vivo; Vss
  Vd: 0.654 L/kg
In vivo; plasma clearance
  clearance: 62.3 mL/min
